Measured values as given in patent publication US5578324A, “Peptide proteinaceous drug nasal powder composition” (Teijin Limited, priority 1993, dated 1996).
Counter-ions that a name gives are not always drawn. Where a SMILES comes first, the peptide text is derived from it. [ ]: non-standard residue; d: D form. The star is where a group is joined. Sta = CC(C)C[C@H](N)[C@@H](O)CC(=O)O; Isovaleryl = CC(C)CC(=O)*

Tests used:
[1] = tested on: Human Nasal Mucosal Homogenate; experiment: Inhibitory effect on degradation of peptide proteinaceous drug in human nasal mucosal homogenate; assay type: biochemical; parameters: concentration or dose not given beside the values; conditions: 37° C., HPLC; for Inhibitor (%) ACTH: degradation of adrenocorticotropic hormone (ACTH); for Inhibitor (%) CGRP: degradation of calcitonin gene related peptide (CGRP); for Inhibitor (%) GLU: degradation of glucagon (GLU); for Inhibitor (%) GHRH: degradation of growth hormone releasing hormone (GHRH); for Inhibitor (%) INS: degradation of insulin (INS); for Inhibitor (%) LHRH: degradation of luteinizing hormone releasing hormone (LHRH); for Inhibitor (%) PTH: degradation of parathyroid hormone (PTH); for Inhibitor (%) PDGF: degradation of platelet-derived growth factor (PDGF); for Inhibitor (%) SCT: degradation of salmon calcitonin (SCT); for Inhibitor (%) GIF: degradation of somatostatin (GIF); for Inhibitor (%) S.p: degradation of substance P (S.p)
Description: A homogenate solution was prepared from human nasal mucosa to give 1 mg/ml of protein. […] The amounts of the peptide proteinaceous drug not yet cleaved after a predetermined time were measured by HPLC to find the amounts of decomposition. The inhibition rates were calculated by the following formula.
Inhibition rate (%)=(A-B)/A×100
A: Amount of peptide proteinaceous drug cleaved when enzyme inhibitor or absorption accelerant of present invention is not added to homogenate
B: Amount of peptide proteinaceous drug cleaved when enzyme inhibitor or absorption accelerant of present invention is added to homogenate

trypsin = biological target: T1, trypsin (Bos taurus, UniProt P00760); experiment: Trypsin inhibiting activity; assay type: biochemical
T1 construct: gene PRSS1
T1 sequence (P00760 24-246): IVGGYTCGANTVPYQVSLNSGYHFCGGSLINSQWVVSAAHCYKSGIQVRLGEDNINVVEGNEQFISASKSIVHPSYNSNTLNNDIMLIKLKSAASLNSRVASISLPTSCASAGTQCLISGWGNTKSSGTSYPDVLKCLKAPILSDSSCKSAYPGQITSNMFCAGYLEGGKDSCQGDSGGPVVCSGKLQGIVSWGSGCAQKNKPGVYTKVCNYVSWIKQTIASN

[2] = Promotion of nasal absorption of peptide proteinaceous drug; conditions: in vivo
[3] = tested on: Human Nasal Mucosal Homogenate; experiment: Activity of protease in human nasal mucosal homogenate (cleavage of synthesized substrates); assay type: biochemical; conditions: substrate 0.1 mM, 37° C., amount of substrate cleaved by HPLC
Description: A homogenate solution was prepared from human nasal mucosa to give 1 mg/ml of protein. Next, synthesis substrates corresponding to the various proteases shown in Table 1 were added to 0.5 ml portions of the homogenate solution to give 0.1 mM concentrations. The results were incubated at 37° C. The amounts of the substrates remaining after a predetermined time were measured by HPLC to find the amounts of substrates cleaved and find the activity of the various proteases.

trypsin inhibiting activity (trypsin)	Compound	Inhibitor (%) ACTH [1] [%]	Inhibitor (%) CGRP [1] [%]	Inhibitor (%) GLU [1] [%]	Inhibitor (%) GHRH [1] [%]	Inhibitor (%) INS [1] [%]	Inhibitor (%) LHRH [1] [%]	Inhibitor (%) PTH [1] [%]	Inhibitor (%) PDGF [1] [%]	Inhibitor (%) SCT [1] [%]	Inhibitor (%) GIF [1] [%]	Inhibitor (%) S.p [1] [%]	effect of promoting nasal absorption [2]	Activity (nM/h/mg protein) [3] [nM/h/mg protein]
	NCc1ccccc1 [Benzylamine]	80	76	48	68	68	49	80	52	70	78	54		
no trypsin inhibiting activity	NC[C@H]1CC[C@H](C(=O)Oc2ccc(CCC(=O)O)cc2)CC1 [Cetraxate hydrochloride, trans-(4-aminomethyl) cyclohexane carboxylic acid p-(2-carboxyethyl)phenyl ester]	70	70	54	70	80	48	75	58		80	54		
	CC(C)C[C@H](NC(=O)[C@@H](NC(=O)N[C@@H](Cc1ccccc1)C(=O)O)[C@@H]1CCN=C(N)N1)C(=O)N[C@H](C=O)Cc1ccccc1 [Chymostatin]	12	23	35	25	22	16	15	10	38	25	15		
	CCOC(=O)c1ccc(OC(=O)CCCCCNC(=N)N)cc1 [Gabexate]	48	49	56	40	46	27	44	43	53	56	40		
	CC(C)CC(=O)N[C@H](C(=O)N[C@H](C(=O)N[C@@H](CC(C)C)[C@@H](O)CC(=O)N[C@@H](C)C(=O)N[C@@H](CC(C)C)[C@@H](O)CC(=O)O)C(C)C)C(C)C [Pepstatin] (Isovaleryl-VV[Sta]A[Sta]-OH)	4	10	8	0	15	0	10	0	10	0	0		
no trypsin inhibiting activity	NC[C@H]1CC[C@H](C(=O)c2ccc(CCC(=O)O)cc2)CC1 [Rotraxate hydrochloride, 3-((p-(trans-4-aminomethylcyclohexylcarbonyl)phenyl)) propionic acid]	74	75	62	75	84	56	76	59	80	86	53		
	Cc1ccc(S(=O)(=O)N[C@@H](Cc2ccccc2)C(=O)CCl)cc1 [TPCK]	8	0	5	0	7	5	10	3	0	11	10		
	O=C(O)CNC(=O)C(CS)Cc1ccccc1 (stereo not shown) [Thiorphan]	0	0	0	0	0	0	0	0	0		0		
no trypsin inhibiting activity	NC[C@H]1CC[C@H](C(=O)O)CC1 [Tranexamic acid, trans-4-(aminomethyl) cyclohexane carboxylic acid]	80	75	68	75	79	58	78	68	73	80	65		
	NCc1ccc(C(=O)O)cc1 [p-Aminomethyl benzoic acid]	84	72	60	70	74	54	80	65	76	85	58		
	NCCCCCC(=O)O [ε-ACA, ε-Amino caproic acid]	0	0	0	0	0	0	0	0	0	0	0	no effect of promoting nasal absorption was observed	
	Bz--Arg--MCA													1

Compound	trypsin inhibiting activity (trypsin)	Inhibitor (%) ACTH [1] [%]	Inhibitor (%) CGRP [1] [%]	Inhibitor (%) GLU [1] [%]	Inhibitor (%) GHRH [1] [%]	Inhibitor (%) INS [1] [%]	Inhibitor (%) LHRH [1] [%]	Inhibitor (%) PTH [1] [%]	Inhibitor (%) PDGF [1] [%]	Inhibitor (%) SCT [1] [%]	Inhibitor (%) GIF [1] [%]	Inhibitor (%) S.p [1] [%]	effect of promoting nasal absorption [2]	Activity (nM/h/mg protein) [3] [nM/h/mg protein]
NCCc1ccc(O)c(O)c1 [Dopamine hydrochloride, 4-(2-aminoethyl)-1,2 benzenediol]	no trypsin inhibiting activity	77	72	50	50	52	29	70	55	64	72	60		
NCc1ccc(S(N)(=O)=O)cc1 [Mafenide acetate, 4-(aminomethyl) benzenesulfamine]	no trypsin inhibiting activity	78	70	56	66	52	32	75	59	67	74	55		
